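96-well plates; 48 h exposure; 5 concentrations. Endpoints by linear interpolation between flanking doses. Not reached: highest tested concentration assigned. TGI: total growth inhibition.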
Legend:
Assay in all cases: NCI-60 cell line screen, 48 h
786-0 renal = system: 786-0 renal
A498 renal = system: A498 renal
A549 NSCLC = system: A549 NSCLC
ACHN renal = system: ACHN renal
BT-549 breast = system: BT-549 breast
CAKI-1 renal = system: CAKI-1 renal
CCRF-CEM leukemia = system: CCRF-CEM leukemia
COLO 205 colon = system: COLO 205 colon
DU-145 prostate = system: DU-145 prostate
EKVX NSCLC = system: EKVX NSCLC
HCC-2998 colon = system: HCC-2998 colon
HCT-116 colon = system: HCT-116 colon
HCT-15 colon = system: HCT-15 colon
HOP-62 NSCLC = system: HOP-62 NSCLC
HOP-92 NSCLC = system: HOP-92 NSCLC
HS 578T breast = system: HS 578T breast
HT29 colon = system: HT29 colon
IGROV1 ovarian = system: IGROV1 ovarian
KM12 colon = system: KM12 colon
LOX IMVI melanoma = system: LOX IMVI melanoma
M14 melanoma = system: M14 melanoma
MALME-3M melanoma = system: MALME-3M melanoma
MCF7 breast = system: MCF7 breast
MDA-MB-231 breast = system: MDA-MB-231 breast
MDA-MB-435 = system: MDA-MB-435
MDA-N = system: MDA-N
MOLT-4 leukemia = system: MOLT-4 leukemia
NCI-H226 lung = system: NCI-H226 lung
NCI-H23 lung = system: NCI-H23 lung
NCI-H522 lung = system: NCI-H522 lung
NCI/ADR-RES ovarian = system: NCI/ADR-RES ovarian
OVCAR-3 ovarian = system: OVCAR-3 ovarian
OVCAR-4 ovarian = system: OVCAR-4 ovarian
OVCAR-5 ovarian = system: OVCAR-5 ovarian
OVCAR-8 ovarian = system: OVCAR-8 ovarian
PC-3 prostate = system: PC-3 prostate
RPMI-8226 leukemia = system: RPMI-8226 leukemia
RXF 393 renal = system: RXF 393 renal
SF-268 CNS = system: SF-268 CNS
SF-295 CNS = system: SF-295 CNS
SF-539 CNS = system: SF-539 CNS
SK-MEL-2 melanoma = system: SK-MEL-2 melanoma
SK-MEL-28 melanoma = system: SK-MEL-28 melanoma
SK-MEL-5 melanoma = system: SK-MEL-5 melanoma
SK-OV-3 ovarian = system: SK-OV-3 ovarian
SNB-19 CNS = system: SNB-19 CNS
SNB-75 CNS = system: SNB-75 CNS
SW-620 colon = system: SW-620 colon
T-47D breast = system: T-47D breast
TK-10 renal = system: TK-10 renal
U251 CNS = system: U251 CNS
UACC-257 melanoma = system: UACC-257 melanoma
UACC-62 melanoma = system: UACC-62 melanoma
UO-31 renal = system: UO-31 renal
HL-60(TB) leukemia = system: HL-60(TB) leukemia
K-562 leukemia = system: K-562 leukemia
NCI-H460 lung = system: NCI-H460 lung
SN12C renal = system: SN12C renal

Q: What does the source list for O=c1[nH]cnc2c1sc1nc3ccccc3n12?
A: TGI (786-0 renal): > 100 µM; TGI (A498 renal): > 100 µM; TGI (A549 NSCLC): > 100 µM; TGI (ACHN renal): > 100 µM; TGI (BT-549 breast): > 100 µM; TGI (CAKI-1 renal): > 100 µM; TGI (CCRF-CEM leukemia): > 100 µM; TGI (COLO 205 colon): > 100 µM; TGI (DU-145 prostate): > 100 µM; TGI (EKVX NSCLC): > 100 µM; TGI (HCC-2998 colon): > 100 µM; TGI (HCT-116 colon): > 100 µM; TGI (HCT-15 colon): > 100 µM; TGI (HOP-62 NSCLC): > 100 µM; TGI (HOP-92 NSCLC): > 100 µM; TGI (HS 578T breast): > 100 µM; TGI (HT29 colon): > 100 µM; TGI (IGROV1 ovarian): > 100 µM; TGI (KM12 colon): 54.9 µM; TGI (LOX IMVI melanoma): > 100 µM; TGI (M14 melanoma): > 100 µM; TGI (MALME-3M melanoma): > 100 µM; TGI (MCF7 breast): > 100 µM; TGI (MDA-MB-231 breast): > 100 µM; TGI (MDA-MB-435): > 100 µM; TGI (MDA-N): > 100 µM; TGI (MOLT-4 leukemia): > 100 µM; TGI (NCI-H226 lung): > 100 µM; TGI (NCI-H23 lung): > 100 µM; TGI (NCI-H522 lung): > 100 µM; TGI (NCI/ADR-RES ovarian): > 100 µM; TGI (OVCAR-3 ovarian): > 100 µM; TGI (OVCAR-4 ovarian): > 100 µM; TGI (OVCAR-5 ovarian): > 100 µM; TGI (OVCAR-8 ovarian): > 100 µM; TGI (PC-3 prostate): > 100 µM; TGI (RPMI-8226 leukemia): > 100 µM; TGI (RXF 393 renal): 84.4 µM; TGI (SF-268 CNS): > 100 µM; TGI (SF-295 CNS): > 100 µM; TGI (SF-539 CNS): > 100 µM; TGI (SK-MEL-2 melanoma): > 100 µM; TGI (SK-MEL-28 melanoma): > 100 µM; TGI (SK-MEL-5 melanoma): > 100 µM; TGI (SK-OV-3 ovarian): > 100 µM; TGI (SNB-19 CNS): > 100 µM; TGI (SNB-75 CNS): > 100 µM; TGI (SW-620 colon): > 100 µM; TGI (T-47D breast): > 100 µM; TGI (TK-10 renal): > 100 µM; TGI (U251 CNS): > 100 µM; TGI (UACC-257 melanoma): > 100 µM; TGI (UACC-62 melanoma): > 100 µM; TGI (UO-31 renal): > 100 µM

Q: With CC(C)CCC[C@@H](C)[C@H]1CC[C@H]2[C@@H]3CC[C@H]4C[C@H](N)CC[C@]4(C)[C@H]3CC[C@]12C as the molecule, how does the TGI (786-0 renal) read?
A: Its TGI is greater than 100 µM.

Q: And the TGI (A498 renal)?
A: The TGI was 57.5 µM.

Q: What about the TGI (A549 NSCLC) of the same molecule?
A: The TGI was 48.1 µM.

Q: And the TGI (ACHN renal)?
A: Its TGI is 36.2 µM.

Q: And the TGI (BT-549 breast)?
A: Its TGI is 67.6 µM.

Q: What about the TGI (CAKI-1 renal) of the same molecule?
A: The TGI was 59 µM.

Q: What about the TGI (CCRF-CEM leukemia) of the same molecule?
A: The TGI was 8.5 µM.

Q: What about the TGI (COLO 205 colon) of the same molecule?
A: Its TGI is 56.3 µM.

Q: And the TGI (DU-145 prostate)?
A: Its TGI is 33.9 µM.

Q: What about the TGI (EKVX NSCLC) of the same molecule?
A: Its TGI is 43.4 µM.

Q: And the TGI (HCC-2998 colon)?
A: The TGI was 64 µM.

Q: And the TGI (HCT-116 colon)?
A: Its TGI is greater than 100 µM.

Q: And the TGI (HCT-15 colon)?
A: Its TGI is 96.2 µM.

Q: And the TGI (HL-60(TB) leukemia)?
A: The TGI was 68.6 µM.

Q: And the TGI (HOP-62 NSCLC)?
A: The TGI was 70.7 µM.

Q: And the TGI (HOP-92 NSCLC)?
A: The TGI was 34.6 µM.

Q: And the TGI (HS 578T breast)?
A: Its TGI is 76.3 µM.

Q: And the TGI (HT29 colon)?
A: The TGI was 54.3 µM.

Q: What about the TGI (IGROV1 ovarian) of the same molecule?
A: Its TGI is 54.3 µM.

Q: What about the TGI (K-562 leukemia) of the same molecule?
A: Its TGI is greater than 100 µM.

Q: And the TGI (KM12 colon)?
A: The TGI was greater than 100 µM.

Q: What about the TGI (LOX IMVI melanoma) of the same molecule?
A: The TGI was 83 µM.

Q: And the TGI (M14 melanoma)?
A: The TGI was 38.5 µM.

Q: What about the TGI (MALME-3M melanoma) of the same molecule?
A: The TGI was 38.7 µM.

Q: What about the TGI (MCF7 breast) of the same molecule?
A: Its TGI is 68.4 µM.

Q: What about the TGI (MDA-MB-231 breast) of the same molecule?
A: Its TGI is 8.22 µM.

Q: What about the TGI (MDA-MB-435) of the same molecule?
A: The TGI was greater than 100 µM.

Q: And the TGI (MDA-N)?
A: The TGI was greater than 100 µM.

Q: And the TGI (MOLT-4 leukemia)?
A: Its TGI is greater than 100 µM.

Q: What about the TGI (NCI-H226 lung) of the same molecule?
A: The TGI was 49.2 µM.

Q: And the TGI (NCI-H23 lung)?
A: Its TGI is greater than 100 µM.

Q: What about the TGI (NCI-H460 lung) of the same molecule?
A: The TGI was greater than 100 µM.

Q: What about the TGI (NCI-H522 lung) of the same molecule?
A: The TGI was 99.7 µM.

Q: What about the TGI (NCI/ADR-RES ovarian) of the same molecule?
A: The TGI was 95.3 µM.

Q: What about the TGI (OVCAR-3 ovarian) of the same molecule?
A: The TGI was greater than 100 µM.

Q: And the TGI (OVCAR-4 ovarian)?
A: Its TGI is 65.4 µM.

Q: And the TGI (OVCAR-5 ovarian)?
A: The TGI was 36.7 µM.

Q: What about the TGI (OVCAR-8 ovarian) of the same molecule?
A: The TGI was 86.4 µM.

Q: And the TGI (PC-3 prostate)?
A: The TGI was 20.2 µM.

Q: What about the TGI (RPMI-8226 leukemia) of the same molecule?
A: The TGI was greater than 100 µM.

Q: What about the TGI (RXF 393 renal) of the same molecule?
A: Its TGI is greater than 100 µM.

Q: What about the TGI (SF-268 CNS) of the same molecule?
A: The TGI was greater than 100 µM.

Q: And the TGI (SF-295 CNS)?
A: Its TGI is 45.5 µM.

Q: And the TGI (SK-MEL-28 melanoma)?
A: Its TGI is 95 µM.

Q: What about the TGI (SK-MEL-5 melanoma) of the same molecule?
A: The TGI was 54.3 µM.

Q: And the TGI (SK-OV-3 ovarian)?
A: The TGI was 64.5 µM.

Q: And the TGI (SN12C renal)?
A: Its TGI is greater than 100 µM.

Q: And the TGI (SNB-19 CNS)?
A: The TGI was 46.9 µM.

Q: What about the TGI (SNB-75 CNS) of the same molecule?
A: The TGI was 57.1 µM.

Q: What about the TGI (SW-620 colon) of the same molecule?
A: Its TGI is greater than 100 µM.

Q: What about the TGI (T-47D breast) of the same molecule?
A: Its TGI is greater than 100 µM.

Q: What about the TGI (TK-10 renal) of the same molecule?
A: The TGI was 37.2 µM.

Q: What about the TGI (U251 CNS) of the same molecule?
A: Its TGI is 43.8 µM.

Q: And the TGI (UACC-257 melanoma)?
A: The TGI was 41.6 µM.

Q: And the TGI (UACC-62 melanoma)?
A: The TGI was 43.1 µM.

Q: What about the TGI (UO-31 renal) of the same molecule?
A: Its TGI is 30.3 µM.

— PubChem BioAssay (NCI)
